{
  "source": "patent US20230277669A1",
  "about": "“USES OF UROLITHINS” (Amazentis SA, priority 2022, published 2023)",
  "key": {"[1]": {"system": "CEA-expressing human CRC organoids", "experiment": "Killing of CEA-expressing CRC organoids by CEA-specific CAR T cells", "format": "cell-based", "conditions": "72 h co-culture"}, "human CD8^+ T cells": {"system": "human CD8^+ T cells", "experiment": "Human CD3+ T cells from PBMC stimulated with aCD3/aCD28 beads in presence of UA", "format": "cell-based", "parameters": "frequency of human TSCM cells (CD45RA+CCR7hiCD62L+CD95+CD8+): dose or concentration left out as unconfirmed", "procedure": "(FIG. 5L) UA induces PGC-1α expression in stimulated CD8+ cells. PGC-1α MFI at 48 h upon stimulation, as assessed by intracellular staining, is shown (n=3). One of two independent experiments are shown. Data are mean ± SD, statistical analysis was performed by two-sided t-test (p**<0.01). (FIG. 5M) Mitochondrial content of TIL CD8+ cells harvested from APTK-carrying mice, fed UA or control diet as depicted in FIG. 1J. Assessed by Mitotracker Red staining. Data are mean ± SD, *p < 0.05 by two-sided t-test. (FIG. 5N) Mitophagy and subsequent PGAM5 release drive PGC-1α upregulation. PGC-1α expression of CD8+ cells derived from Pink1^-/- KO mice upon 48 h stimulation in vitro in the presence of UA or DMSO control (n=4). Data are mean ± SD, statistical analysis was performed by two-sided t-test. Depicts one of two independent experiments. (FIG. 5O) Mitophagy and subsequent PGAM5 release drive PGC-1 α upregulation. PGC-1α expression of CD8+ cells derived from PGAM5^-^/- mice upon 48 h stimulation in vitro in the presence of UA or DMSO control (n=4). Data are mean ± SD, statistical analysis was performed by two-sided t-test. […] Cells were co-treated with DMSO, UA and an inhibitor of PGC-1α (PGC-1αi) as indicated (n=4). One of two independent experiments are shown. Data are mean ± SD, statistical analysis was performed by two-sided t-test (p**<0.01; ***p <0.001; n.s. not significant).(FIG. 5Q) Urolithin A induces TSCM in human CD8+ cells: Schematic overview. PBMC were isolated from healthy donors, prior to T cell purification and in vitro stimulation via aCD3/aCD28 stimulation beads at the presence of UA or DMSO control. (FIG. 5R) Quantification of human TSCM (n=4). Representative data of one out of five donors with the same result are shown. (FIG. 5S) Quantification of TMRM^loCD8+ human cells 48 h after activation in the presence of UA or DMSO control (n=4). (FIG. 5T) TCF1 expression in human CD8 cells as assessed by flow cytometry (n=4). All data are mean ± SD; statistical analysis was performed by two-sided t-test (*p < 0.05; p**<0.01; p****0.0001).\n(FIG. 6A) Human PBMC were isolated from healthy donors, T cells were purified and stimulated ex-vivo with αCD3/αCD28 in the presence of UA ([…]) or DMSO control.\n(FIG. 6B) Frequency of human TSCM 48 h after stimulation as shown in (A). Data are mean ± SD, n=4, ****p<0.0001 by one-way ANOVA followed by Tukey’s multiple comparison test.\n(FIG. 6C) Quantification of human TMRM^loCD8^+ T cells 48 h after stimulation in the presence of UA or DMSO control .Data are mean ± SD, n=4,**p<0.01 by two-sided t test.\n(FIG. 6D) TCF1 expression in human CD8+ T cells 48 h after stimulation in the presence of UA or DMSO control. Data are mean ± SD, n=4,*p<0.05by two-sided t test. […]"}, "[2]": {"system": "FoxP3+ T-regulatory cells", "conditions": "cited from earlier work"}},
  "data": [
    {"compound": "O=c1oc2cc(O)ccc2c2ccc(O)cc12", "note": "[Urolithin A]", "values": [
      {"measurement": "killing efficacy of CEA-expressing human CRC organoids", "setting": "[1]", "value": "comparable killing efficacy"},
      {"measurement": "CD95hiCD62L+ cells within the CD45RA+CCR7hiCD8+ compartment", "setting": "human CD8^+ T cells", "value": "dose-dependent increase"},
      {"measurement": "TCF1 expression (intracellular staining)", "setting": "human CD8^+ T cells; 48 h", "value": "increased TCF1 expression"},
      {"measurement": "frequency of human TSCM cells (CD45RA+CCR7hiCD62L+CD95+CD8+)", "setting": "human CD8^+ T cells; 48 h, five out of five individual donors", "value": "increased the frequency"},
      {"measurement": "mitochondrial membrane potential", "setting": "human CD8^+ T cells; after 48 hours", "value": "decreased mitochondrial membrane potential"},
      {"measurement": "FoxP3+ T-regulatory cells", "setting": "[2]", "value": "expanding FoxP3+ T-regulatory cells"}
    ]}
  ]
}
